Data on 2 compounds can be found in patent publication US20090226909A1 (Tel HaShomer Medical Research Infrastructure and Services …, priority 2006, published 2009).

For assay [1] the following is noted: CYP2C9*1 (wild type) allele; Higashi 2002, Sconce 2005; cited from earlier work.
Assay [2] can be described thus: Warfarin dose requirements in selected warfarin resistant and warfarin sensitive patients at stable therapeutic INR. The format is in vivo, human. How it is done: Aliquots of fresh whole blood were drawn for INR determination and DNA extraction.
Data Analyses—Statistical analyses were performed using SPSS software (version 11.0, SPSS Inc.) and GB-STAT software package (version 8.0, Dynamic Microsystems Inc.). Relevant statistical applications are mentioned in the text, odds ratios (OR) are presented with 95% confidence limits, p value of <0.05 indicates statistical significance.

Assay [3] can be described thus: Warfarin dose requirements in 99 unselected warfarin-treated subjects at stable INR, by VKORC1 Asp36Tyr (D36Y) carrier status. The format is in vivo, human.
Assay [4] in a line: Effect of combined CYP2C9, VKORC1 and CALU genotypes on warfarin dose requirements (FIG. 2). The format is in vivo, human. The settings on record: dotted line of FIG. 2.
From the text: The combined genotypes are ordered according to the model proposed by Wallin R, et al., 2001, assuming the reduced VKORC1 activity associated with the VKORC1 6853G→C polymorphism and the reduced activity of CALU associated with the CALU 73G→A (R4Q) polymorphism and assigning equal weight to CYP2C9 and VKORC1 genotypes. […] CYP2C9=cytochrome P450 2C9; VKORC1=vitamin K epoxide reductase component 1; CALU=calumenin;
For assay [5] the following is noted: two patients with VKORC1 Asp36Tyr; Geisen 2005b; cited from earlier work.
The mark [6] stands for this setting: 23 selected resistant and sensitive subjects.

Each structure is given as a SMILES string. Values joined by “and” are separate entries in the source; they are usually repeats but may differ in a detail not shown here. Equal entries are not always repeated.

Take `CC(=O)CC(c1ccccc1)c1c(O)c2ccccc2oc1=O` (stereo not shown) [warfarin]: the “warfarin doses associated with CYP2C9*1 variant” value in assay [1] is listed as 28-39 mg/week. In addition, the “INR maintained under warfarin” value came to 2.7±0.5 in assay [2] (setting [6]) and 2.7±0.5 in assay [3] (99 unselected warfarin-treated subjects, stable INR). Further, the “INR maintained under warfarin, range” value in assay [2] (setting [6]) and in assay [3] (99 unselected warfarin-treated subjects) was 1.9-4.2 throughout. Besides, the “mean warfarin weekly dose” value is 112.8±29 mg/week and 112.8 mg/week in assay [2] (warfarin resistant group (N=15, subjects 1-15)); 10.5±2.32 mg/week and 10.5 mg/week in assay [2] (warfarin sensitive group (N=8, subjects 16-23)). Further, the “warfarin dose requirements, range” value in assay [3] (carriers of VKORC1 Asp36Tyr (8/99), upper dose quartile) was 70-105 mg/week and > 70 mg/week; in assay [3] (non-carriers of Asp36Tyr (n=91)), 8-70 mg/week. For the same compound, in assay [3] (non-carriers of Asp36Tyr (n=91), mean±SD), the “mean warfarin dose required” value is 42.7±7.5 mg/week. For the same compound, the mean warfarin dose in assay [3] (whole unselected warfarin-treated group (N=99), stable INR) is 39.4±7.8 mg/week. Further, the “median weight-normalized warfarin dose” value in assay [4] was found to be 4.8 mg/day.
Regarding `CCC(c1ccccc1)c1c(O)c2ccccc2oc1=O` (stereo not shown) [phenprocoumon], the “phenprocoumon requirement to maintain INR between 2.0 and 3.0” value in assay [5] is 40-50 mg per week.
